Values quoted from earlier work as cited in patent US20230121528A1, “SALMONELLA-BASED DNA VACCINES IN COMBINATION WITH AN ANTIBIOTIC” (VAXIMM AG, priority 2020, published 2023).

Test system: glioblastoma
Conditions: glioblastoma patients

Substance: avastin: monoclonal antibody avastin targeting VEGF
- survival benefit: only showed benefits in progression free survival, but not in overall survival
